Data reported in ChEMBL document CHEMBL6087476, “Positive Charge-Concentrated Dimeric Lipopeptides with Enhanced Protease Resistance: A Potential Solution for Systemic Bacterial Infections” (J Med Chem, 2025).
In brackets after ≈: the same amount, converted by molar mass. Activity calls are given as the source filed them. No cut-off for these calls is given here.

What was measured:
[1] = test system: Escherichia coli; test: Resistance fold, ratio of MIC for Escherichia coli ATCC 25922 measured after 7 day passage period to MIC for Escherichia coli ATCC 25922; format: functional
[2] = test system: Escherichia coli; test: Reduction in intracellular ATP level in Escherichia coli ATCC 25922 at 2 uM measured after 1 hr incubation by Enhanced ATP assay kit; format: functional; set-up: scale not given: the % may be the effect or the level left
[3] = test system: Staphylococcus aureus; test: Antimicrobial activity against methicillin-resistant Staphylococcus aureus 43300 assessed as increase in absorbance incubated for 20 to 22 hrs; format: functional; details: time 20-22 hrs
[4] = test system: Lipopolysaccharide (LPS); test: Binding affinity to Escherichia coli O111:B4 Lipopolysaccharide by fluorescent probe BODIPYTR-cadaverine (BC) assay; details: dose 1-16 µM
[5] = test system: Escherichia coli; test: Induction of membrane damage in Escherichia coli ATCC 25922 assessed as ruptured membrane by analysing red fluorescence at 8 uM measured after 1 hr incubation by PI - live and dead staining based fluorescence microscopy; format: functional, organism-based
[6] = Hemolytic activity in healthy human RBC assessed as hemolysis incubated for 1 hr by microplate reader; format: toxicity, cell-based; details: erythrocyte
[7] = test system: Cell membrane; test: Induction of Outer membrane permeability in Escherichia coli ATCC 25922 incubated for 30 mins by N-phenyl-1-naphthylamine (NPN) uptake assay; format: subcellular; details: dose 1-16 µM
[8] = test system: RAW264.7; test: Cytotoxicity against mouse RAW264.7 cells assessed as cell death measured after 18 to 24 hrs by MTT assay; format: functional; details: time 18-24 hrs
[9] = test system: Acinetobacter baumannii; test: Antimicrobial activity against Acinetobacter baumannii AB1902 assessed as increase in absorbance incubated for 20 to 22 hrs; format: functional; details: time 20-22 hrs
[10] = test system: Cell membrane; test: Induction of depolarization of cytoplasmic membrane (CM) in Escherichia coli ATCC 25922 assessed as fluorescence changes at 1/2 to 3 times of MIC measured after 1000 to 3000 seconds by fluorescent probe DiSC3-5 assay; format: subcellular; details: time 1000-3000 sec
[11] = test system: Escherichia coli; test: Induction of membrane damage in Escherichia coli ATCC 25922 assessed as damaged membrane surface by analysing leakage (hollow interiors) at 8 uM measured after 1 hr incubation by TEM analysis; format: functional, organism-based
[12] = test system: Escherichia coli; test: Antimicrobial activity against Escherichia coli ATCC 25922 assessed as increase in absorbance incubated for 20 to 22 hrs in presence of Mg2+ physiological salt; format: functional, organism-based; details: time 20-22 hrs
[13] = test system: Escherichia coli; test: Antimicrobial activity against Escherichia coli ATCC 25922 assessed as increase in absorbance incubated for 20 to 22 hrs in presence of Fe3+ physiological salt; format: functional, organism-based; details: time 20-22 hrs
[14] = test system: Escherichia coli; test: Antimicrobial activity against Escherichia coli ATCC 25922 assessed as increase in absorbance incubated for 20 to 22 hrs in presence of […] physiological salt; format: functional, organism-based; details: time 20-22 hrs
[15] = test system: Escherichia coli; test: Inhibition of respiratory chain dehydrogenase (RCD) activity in Escherichia coli ATCC 25922 at 4 uM incubated for 90 mins by TTC assay
[16] = test system: Escherichia coli; test: Antimicrobial activity against Escherichia coli K99 assessed as increase in absorbance incubated for 20 to 22 hrs; format: functional; details: time 20-22 hrs
[17] = test system: Escherichia coli; test: Induction of membrane damage in Escherichia coli ATCC 25922 assessed as damaged membrane surface (irregular vesicles protrusions) at 8 uM measured after 1 hr incubation by SEM analysis; format: functional, organism-based
[18] = test system: Escherichia coli; test: Antimicrobial activity against Escherichia coli ATCC 25922 assessed as increase in absorbance at 8 mg/ml incubated for 8 hrs in presence of trypsin; format: functional, organism-based
[19] = test system: Salmonella typhimurium; test: Antimicrobial activity against Salmonella typhimurium 14028 assessed as increase in absorbance incubated for 20 to 22 hrs; format: functional, Salmonella enterica subsp. enterica serovar Typhimurium; details: Salmonella enterica, time 20-22 hrs
[20] = test system: Escherichia coli; test: Antimicrobial activity against Escherichia coli ATCC 25922 assessed as increase in absorbance incubated for 4 hrs in presence of 12.5% serum; format: functional, organism-based
[21] = test system: Escherichia coli; test: Antimicrobial activity against Escherichia coli ATCC 25922 assessed as increase in absorbance incubated for 4 hrs in presence of 50% serum; format: functional, organism-based
[22] = test system: Pseudomonas aeruginosa; test: Antimicrobial activity against Pseudomonas aeruginosa 25349 assessed as increase in absorbance incubated for 20 to 22 hrs; format: functional; details: time 20-22 hrs
[23] = test system: Staphylococcus aureus; test: Antimicrobial activity against Staphylococcus aureus 29213 assessed as increase in absorbance incubated for 20 to 22 hrs; format: functional; details: time 20-22 hrs
[24] = test system: Escherichia coli; test: Antimicrobial activity against Escherichia coli K88 assessed as increase in absorbance incubated for 20 to 22 hrs; format: functional; details: time 20-22 hrs
[25] = test system: Escherichia coli; test: Antimicrobial activity against Escherichia coli ATCC 25922 assessed as increase in absorbance at MIC concentration in presence of […] ug/ml Lipopolysaccharide incubated for 8 hrs; format: functional, organism-based; details: dose 64.0 µg/ml
[26] = test system: Acinetobacter baumannii; test: Antimicrobial activity against Acinetobacter baumannii AB1901 assessed as increase in absorbance incubated for 20 to 22 hrs; format: functional; details: time 20-22 hrs
[27] = test system: Enterococcus faecalis; test: Antimicrobial activity against Enterococcus faecalis 29212 assessed as increase in absorbance incubated for 20 to 22 hrs; format: functional; details: time 20-22 hrs
[28] = test system: Escherichia coli; test: Antimicrobial activity against Escherichia coli ATCC 25922 assessed as increase in absorbance incubated for 20 to 22 hrs in presence of NH4+ physiological salt; format: functional, organism-based; details: time 20-22 hrs
[29] = test system: Escherichia coli; test: Induction of ROS accumulation in Escherichia coli ATCC 25922 at 4 uM incubated for 30 mins by DCFH-DA assay; format: functional, organism-based
[30] = test system: Cell membrane; test: Induction of cytoplasmic membrane (CM) permeabilization in Escherichia coli ATCC 25922 assessed as utilization of ONPG at 1/2 MIC; format: subcellular
[31] = test system: Staphylococcus epidermidis; test: Antimicrobial activity against Staphylococcus epidermidis 12228 assessed as increase in absorbance incubated for 20 to 22 hrs; format: functional; details: time 20-22 hrs
[32] = test system: Escherichia coli; test: Resistance fold, ratio of MIC for Escherichia coli ATCC 25922 measured after 30 day passage period to MIC for Escherichia coli ATCC 25922; format: functional
[33] = test system: Escherichia coli; test: Antimicrobial activity against Escherichia coli ATCC 25922 assessed as increase in absorbance incubated for 4 hrs in presence of 25% serum; format: functional, organism-based
[34] = test system: Escherichia coli; test: Antibiofilm activity against Escherichia coli ATCC 25922 biofilm assessed as removal of matured biofilm at 16 uM; format: functional, organism-based
[35] = test system: Staphylococcus aureus; test: Antimicrobial activity against Staphylococcus aureus 11011 assessed as increase in absorbance incubated for 20 to 22 hrs; format: functional; details: time 20-22 hrs
[36] = test system: Salmonella typhimurium; test: Antimicrobial activity against Salmonella typhimurium 7731 assessed as increase in absorbance incubated for 20 to 22 hrs; format: functional, Salmonella enterica subsp. enterica serovar Typhimurium; details: Salmonella enterica, time 20-22 hrs
[37] = test system: Cell membrane; test: Induction of depolarization of cytoplasmic membrane (CM) in Escherichia coli ATCC 25922 assessed as fluorescence changes at 1/2 to 3 times of MIC by fluorescent probe DiSC3-5 assay; format: subcellular; details: time 1000-3000 sec
[38] = test system: HEK-293T; test: Cytotoxicity against human HEK293T cells assessed as cell death measured after 18 to 24 hrs by MTT assay; format: functional; details: time 18-24 hrs
[39] = test system: Escherichia coli; test: Antibiofilm activity against Escherichia coli ATCC 25922 biofilm assessed as inhibition of biofilm formation at 2 uM; format: functional, organism-based
[40] = test system: Staphylococcus aureus; test: Antimicrobial activity against Staphylococcus aureus 25923 assessed as increase in absorbance incubated for 20 to 22 hrs; format: functional; details: time 20-22 hrs
[41] = test system: Escherichia coli; test: Antimicrobial activity against Escherichia coli ATCC 25922 assessed as increase in absorbance incubated for 20 to 22 hrs in presence of K+ physiological salt; format: functional, organism-based; details: time 20-22 hrs
[42] = test system: Escherichia coli; test: Induction of membrane damage in Escherichia coli ATCC 25922 assessed as ruptured membrane by analysing green fluorescence at 8 uM measured after 1 hr incubation by SYTO - live and dead staining based fluorescence microscopy; format: functional, organism-based
[43] = test system: Pseudomonas aeruginosa; test: Antimicrobial activity against Pseudomonas aeruginosa 27853 assessed as increase in absorbance incubated for 20 to 22 hrs; format: functional; details: time 20-22 hrs
[44] = test system: Escherichia coli; test: Antimicrobial activity against Escherichia coli ATCC 25922 assessed as increase in absorbance at MIC concentration in presence of < 8 ug/ml Lipopolysaccharide incubated for 8 hrs; format: functional, organism-based; details: dose < 8.0 µg/ml
[45] = test system: Escherichia coli; test: Antimicrobial activity against Escherichia coli ATCC 25922 assessed as increase in absorbance at 8 mg/ml incubated for 8 hrs in presence of pepsin; format: functional, organism-based
[46] = test system: Escherichia coli; test: Antimicrobial activity against Escherichia coli ATCC 25922 assessed as increase in absorbance at 8 mg/ml incubated for 8 hrs in presence of chymotrypsin; format: functional, organism-based
[47] = test system: Escherichia coli; test: Antimicrobial activity against Escherichia coli ATCC 25922 assessed as increase in absorbance incubated for 20 to 22 hrs; format: functional; details: time 20-22 hrs
[48] = Cytotoxicity against porcine IPEC-J2 cells assessed as cell death measured after 18 to 24 hrs by MTT assay; format: functional; details: Sus scrofa, time 18-24 hrs
[49] = test system: Mus musculus; test: Anti-inflammatory activity against Escherichia coli ATCC 25922-induced peritonitis ICR mouse model assessed as decrease in IL-1 beta level in serum spleen at 5 mg/kg, ip measured after 12 hrs; format: functional, organism-based
[50] = test system: Mus musculus; test: Anti-inflammatory activity against Escherichia coli ATCC 25922-induced peritonitis ICR mouse model assessed as decrease in IL-6 level in serum spleen at 5 mg/kg, ip measured after 12 hrs; format: functional, organism-based
[51] = test system: Mus musculus; test: Anti-inflammatory activity against Escherichia coli ATCC 25922-induced peritonitis ICR mouse model assessed as decrease in TNF-alpha level in serum spleen at 5 mg/kg, ip measured after 12 hrs; format: functional, organism-based

SMILES: CN(C)[C@@H]1C(O)=C(C(N)=O)C(=O)[C@@]2(O)C(O)=C3C(=O)c4c(O)cccc4[C@@](C)(O)[C@H]3C[C@@H]12 [TETRACYCLINE]
- fold change (FC) [1]: 8

SMILES: CCCCCCCCCC(=O)NCCCC[C@H](NC(=O)[C@@H](N)CSSC[C@H](N)C(=O)N[C@@H](CCCCNC(=O)CCCCCCCCC)C(=O)NCC(=O)NCC(=O)NCC(=O)N[C@H](CCCNC(=N)N)C(=O)N[C@@H](CCCNC(=N)N)C(=O)N[C@@H](CCCNC(=N)N)C(=O)N1CCC[C@H]1C(=O)O)C(=O)NCC(=O)NCC(=O)NCC(=O)N[C@H](CCCNC(=N)N)C(=O)N[C@@H](CCCNC(=N)N)C(=O)N[C@@H](CCCNC(=N)N)C(=O)N1CCC[C@H]1C(=O)O
- Activity [2]: ~40%
- MIC [3]: 8 µM (≈ 18.2 µg/mL)
- Activity [4]: Dose-dependent-effect
- Activity [5]: Active
- HC10 [6]: 256 µM
- Activity [7]: Dose-dependent-effect
- IC10 [8]: 256 µM
- MIC [9]: 16 µM (≈ 36.5 µg/mL)
- Activity [10]: Dose-dependent-effect
- Activity [11]: Active
- Activity [12]: Active
- Activity [13]: Active
- Activity [14]: Active
- inhibition [15]: Active
- MIC [16]: 8 µM (≈ 18.2 µg/mL)
- Activity [17]: Active
- Activity [18]: Active; Negligible Alteration In Mic Values Found
- MIC [19]: 4 µM (≈ 9.12 µg/mL)
- Activity [20]: Active
- Activity [21]: Active
- MIC [22]: 4 µM (≈ 9.12 µg/mL)
- MIC [23]: 8 µM (≈ 18.2 µg/mL)
- MIC [24]: 4 µM (≈ 9.12 µg/mL)
- Activity [25]: inactive
- MIC [26]: 4 µM (≈ 9.12 µg/mL)
- MIC [27]: 8 µM (≈ 18.2 µg/mL)
- Activity [28]: Active
- Activity [29]: Active
- Activity [30]: Active
- MIC [31]: 8 µM (≈ 18.2 µg/mL)
- fold change (FC) [32]: <=2
- Activity [33]: Active
- Activity [34]: Active
- MIC [35]: 8 µM (≈ 18.2 µg/mL)
- MIC [36]: 8 µM (≈ 18.2 µg/mL)
- Activity [37]: Time-dependent-effect
- IC10 [38]: 256 µM
- Activity [39]: Active
- MIC [40]: 8 µM (≈ 18.2 µg/mL)
- Activity [41]: Active
- Activity [42]: Active
- MIC [43]: 8 µM (≈ 18.2 µg/mL)
- Activity [44]: Active
- Activity [45]: Active; Negligible Alteration In Mic Values Found
- Activity [46]: Active; Negligible Alteration In Mic Values Found
- MIC [47]: 4 µM (≈ 9.12 µg/mL)
- IC10 [48]: 256 µM

SMILES: CNC(C)[C@@H]1CC[C@@H](N)[C@@H](O[C@H]2[C@H](O)[C@@H](O[C@H]3OC[C@](C)(O)[C@H](NC)[C@H]3O)[C@H](N)C[C@@H]2N)O1.CN[C@@H]1[C@@H](O)[C@@H](O[C@@H]2[C@@H](O)[C@H](O[C@H]3O[C@H](C(C)N)CC[C@H]3N)[C@@H](N)C[C@H]2N)OC[C@]1(C)O.CN[C@@H]1[C@@H](O)[C@@H](O[C@@H]2[C@@H](O)[C@H](O[C@H]3O[C@H](CN)CC[C@H]3N)[C@@H](N)C[C@H]2N)OC[C@]1(C)O (stereo not given in full)
- MIC [9]: > 64 µM
- Activity [49]: Active
- Activity [50]: Active
- Activity [51]: Active
- MIC [22]: 0.25 µM
- MIC [26]: 0.25 µM
- MIC [35]: > 64 µM
